Where two headings read alike, the source gives them in different places. Peptide text beside a SMILES is read from it.

For data set [1], the system named is Escherichia coli ATCC 25922. The conditions noted are these: ATCC 25922. Summed up:
(§1)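 Broth microdilution; cation-adjusted MHII; inoculum ~5×10^5 CFU/mL from 0.5 McFarland saline suspension; peptide two-fold serial dilutions; polysorbate 80 0.002% final; peptide stock 1 mg/mL in water.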

Data set [2] relates to Escherichia coli MCR-1 Af 45. In outline:
as §1

Data set [3] deals with Klebsiella pneumoniae SSI3010. As to conditions: SSI3010. In outline: as §1
For data set [4], the system named is human red blood cells (hRBC). The data set can be described thus: Hemolysis of human red blood cells. In kind it is cell-based. As to conditions: red cells of human, 1 h. In outline:
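PBS-washed human red blood cells (20% v/v) were incubated with peptide at 200 μg/mL for 1 h at 37 °C with shaking. Supernatant OD was read at 540 nm after 8-fold dilution. Hemolysis is expressed as percent of the water control.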

The mark [5] stands for this setting: Mueller-Hinton broth II, 18-20 hours at 35° C.

For `CCCC[C@H](NC(=O)[C@H](CCCNC(=N)N)NC(=O)[C@H](CCN)NC(=O)[C@@H]1CSSC[C@H](NC(=O)[C@H](Cc2ccc(O)cc2)NC(=O)[C@@H](NC(=O)[C@@H](NC(=O)[C@@H]2CCCN2C(=O)[C@@H](NC(=O)[C@@H]2CCCN2C(=O)[C@H](CCCCN)NC(=O)[C@H](N)CCCCN)C(C)C)[C@@H](C)CC)[C@@H](C)CC)C(=O)N[C@@H](CC(N)=O)C(=O)N[C@@H](CCCNC(=N)N)C(=O)N[C@@H](CCCNC(=N)N)C(=O)N[C@@H]([C@@H](C)O)C(=O)N[C@H](CCN)C(=O)N[C@@H](CCCCN)C(=O)N1)C(=O)O` [Example 70] (HELM PEPTIDE1{[dK].K.P.V.P.I.I.Y.C.N.R.R.T.[NCC[C@@H](N[*:1])C(=O)[*:2]].K.C.[Dab].R.[Nle]}$PEPTIDE1,PEPTIDE1,9:R3-16:R3$$$V2.0), the “Escherichia coli ATCC 25922 MIC” value in data set [1] worked out at 0.03125 µg/mL. For the same compound, the “Escherichia coli MCR-1 Af 45 MIC” value in data set [2] (MCR-1 Af 45) came out at 0.0625 µg/mL. Besides, the “Klebsiella pneumoniae SSI3010 MIC” value in data set [3] turned out to be 0.125 µg/mL. Further, in data set [4], the “Hemolysis at 0.2 g/L” value was found to be 0%.

For the compound `CC[C@H](C)[C@H](NC(=O)[C@@H]1C[C@@H](O)CN1C(=O)[C@@H](NC(=O)[C@@H]1C[C@@H](O)CN1C(=O)[C@H](CCCCN)NC(=O)[C@@H](N)CCCCN)C(C)C)C(=O)N[C@H](C(=O)N[C@@H](Cc1ccc(O)cc1)C(=O)N[C@@H]1C(=O)N[C@@H](CC(N)=O)C(=O)N[C@@H](CCCNC(=N)N)C(=O)N[C@@H](CCN)C(=O)N[C@@H]([C@@H](C)O)C(=O)N[C@H](CCN)C(=O)N[C@@H](CCCCN)C(=O)N[C@H](C(=O)N[C@@H](CCN)C(=O)N[C@@H](CCCN)C(=O)N[C@@H](Cc2ccc(O)cc2)C(=O)O)CSSC1(C)C)[C@@H](C)O` [Example 124, Lys-Lys-Hyp-Val-Hyp-Ile-Thr-Tyr-Pen-Asn-Arg-Dab-Thr-^DDab-Lys-Cys-Dab-Orn-Tyr] (HELM PEPTIDE1{K.K.[Hyp].V.[Hyp].I.T.Y.[Pen].N.R.[Dab].T.[NCC[C@@H](N[*:1])C(=O)[*:2]].K.C.[Dab].[Orn].Y}$PEPTIDE1,PEPTIDE1,9:R3-16:R3$$$V2.0; N-terminus and C-terminus assumed), the “Escherichia coli ATCC 25922 MIC” value in data set [1] came to 0.125 µg/mL. In addition, the “Escherichia coli MCR-1 Af 45 MIC” value in data set [2] (MCR-1 Af 45) amounted to 0.0625 µg/mL. In addition, the “Klebsiella pneumoniae SSI3010 MIC” value in data set [3] worked out at 0.25 µg/mL. Also, in data set [4], the “Hemolysis at 0.2 g/L” value worked out at 0%.

For the compound `CCCC[C@H](NC(=O)[C@H](CCCNC(=N)N)NC(=O)[C@H](CCN)NC(=O)[C@@H]1CSSC(C)(C)[C@H](NC(=O)[C@H](Cc2ccc(O)cc2)NC(=O)[C@@H](NC(=O)[C@@H](NC(=O)[C@@H]2C[C@@H](N)CN2C(=O)[C@@H](N)C(C)C)[C@@H](C)CC)[C@@H](C)CC)C(=O)N[C@@H](CC(N)=O)C(=O)N[C@@H](CCCNC(=N)N)C(=O)N[C@@H](CCN)C(=O)N[C@@H]([C@@H](C)O)C(=O)N[C@H](CCN)C(=O)N[C@@H](CCCCN)C(=O)N1)C(=O)O` [Example 136] (HELM PEPTIDE1{V.[N[C@@H]1C[C@@H](C(=O)[*:2])N([*:1])C1].I.I.Y.[Pen].N.R.[Dab].T.[NCC[C@@H](N[*:1])C(=O)[*:2]].K.C.[Dab].R.[Nle]}$PEPTIDE1,PEPTIDE1,6:R3-13:R3$$$V2.0), in data set [1], the “Escherichia coli ATCC 25922 MIC” value was found to be 0.125 µg/mL. For the same compound, the “Escherichia coli MCR-1 Af 45 MIC” value in data set [2] (setting [5]) was determined as 0.0625 µg/mL. Besides, the “Klebsiella pneumoniae SSI3010 MIC” value in data set [3] is 0.125 µg/mL. The “Hemolysis at 0.2 g/L” value in data set [4] worked out at 0%.

For `CCCC[C@H](NC(=O)[C@H](CCCNC(=N)N)NC(=O)[C@H](CCN)NC(=O)[C@@H]1CSSC[C@H](NC(=O)[C@H](Cc2ccc(O)cc2)NC(=O)[C@H](CCCNC(=N)N)NC(=O)[C@@H](NC(=O)[C@@H]2C[C@@H](N)CN2C(=O)[C@@H](NC(=O)[C@@H]2CCCN2C(=O)[C@H](CCCCN)NC(=O)[C@@H](N)CCCCN)C(C)C)[C@@H](C)CC)C(=O)N[C@@H](CC(N)=O)C(=O)N[C@@H](CCCNC(=N)N)C(=O)N[C@@H](CCCNC(=N)N)C(=O)N[C@@H]([C@@H](C)O)C(=O)N[C@H](CCN)C(=O)N[C@@H](CCCCN)C(=O)N1)C(=O)O` [Example 74] (HELM PEPTIDE1{K.K.P.V.[N[C@@H]1C[C@@H](C(=O)[*:2])N([*:1])C1].I.R.Y.C.N.R.R.T.[NCC[C@@H](N[*:1])C(=O)[*:2]].K.C.[Dab].R.[Nle]}$PEPTIDE1,PEPTIDE1,9:R3-16:R3$$$V2.0), in data set [1], the “Escherichia coli ATCC 25922 MIC” value was determined as 0.03125 µg/mL. Also, the “Escherichia coli MCR-1 Af 45 MIC” value in data set [2] (MCR-1 Af 45) turned out to be 0.0625 µg/mL. Besides, the “Klebsiella pneumoniae SSI3010 MIC” value in data set [3] is 0.0625 µg/mL. The “Hemolysis at 0.2 g/L” value in data set [4] is given as 0%.

As for `CC[C@H](C)[C@H](NC(=O)[C@@H](NC(=O)[C@@H]1C[C@@H](O)CN1C(=O)[C@@H](N)C(C)C)[C@@H](C)CC)C(=O)N[C@@H](Cc1ccc(O)cc1)C(=O)N[C@H]1CSSC[C@@H](C(=O)N[C@@H](CCN)C(=O)N[C@@H](CCCNC(=N)N)C(=O)N[C@@H](Cc2ccc(O)cc2)C(=O)O)NC(=O)[C@H](CCCCN)NC(=O)[C@@H](CCN)NC(=O)[C@H]([C@@H](C)O)NC(=O)[C@H](CCN)NC(=O)[C@H](CCCNC(=N)N)NC(=O)[C@H](CC(N)=O)NC1=O` [Example 143] (HELM PEPTIDE1{V.[Hyp].I.I.Y.C.N.R.[Dab].T.[NCC[C@@H](N[*:1])C(=O)[*:2]].K.C.[Dab].R.Y}$PEPTIDE1,PEPTIDE1,6:R3-13:R3$$$V2.0), the “Escherichia coli ATCC 25922 MIC” value in data set [1] came to 0.0625 µg/mL. Besides, the “Escherichia coli MCR-1 Af 45 MIC” value in data set [2] (setting [5]) is 0.03125 µg/mL. The “Klebsiella pneumoniae SSI3010 MIC” value in data set [3] is 0.125 µg/mL. In addition, the “Hemolysis at 0.2 g/L” value in data set [4] is recorded as 0%.

Turning to `CC[C@H](C)[C@H](NC(=O)[C@@H]1C[C@@H](O)CN1C(=O)[C@@H](N)C(C)C)C(=O)N[C@H](C(=O)N[C@@H](Cc1ccc(O)cc1)C(=O)N[C@@H]1C(=O)N[C@@H](CC(N)=O)C(=O)N[C@@H](CCCNC(=N)N)C(=O)N[C@@H](CCN)C(=O)N[C@@H]([C@@H](C)O)C(=O)N[C@H](CCN)C(=O)N[C@@H](Cc2ccc(O)cc2)C(=O)N[C@H](C(=O)N[C@@H](CCN)C(=O)N[C@@H](CCCNC(=N)N)C(=O)N[C@@H](Cc2ccc(O)cc2)C(=O)O)CSSC1(C)C)[C@@H](C)O` [Example 171] (HELM PEPTIDE1{V.[Hyp].I.T.Y.[Pen].N.R.[Dab].T.[NCC[C@@H](N[*:1])C(=O)[*:2]].Y.C.[Dab].R.Y}$PEPTIDE1,PEPTIDE1,6:R3-13:R3$$$V2.0), in data set [1], the “Escherichia coli ATCC 25922 MIC” value is 0.5 µg/mL. For the same compound, in data set [2] (setting [5]), the “Escherichia coli MCR-1 Af 45 MIC” value is 0.5 µg/mL. The “Klebsiella pneumoniae SSI3010 MIC” value in data set [3] turned out to be 0.25 µg/mL. Also, in data set [4], the “Hemolysis at 0.2 g/L” value amounted to 0%.

Turning to `CC[C@H](C)[C@H](NC(=O)[C@@H]1C[C@@H](O)CN1C(=O)[C@@H](N)C(C)C)C(=O)N[C@H](C(=O)N[C@@H](Cc1ccc(O)cc1)C(=O)N[C@@H]1C(=O)N[C@@H](CC(N)=O)C(=O)N[C@@H](CCCNC(=N)N)C(=O)N[C@@H](CCN)C(=O)N[C@@H]([C@@H](C)O)C(=O)N[C@H](CCN)C(=O)N[C@@H](Cc2c[nH]c3ccccc23)C(=O)N[C@H](C(=O)N[C@@H](CCN)C(=O)N[C@@H](CCCNC(=N)N)C(=O)N[C@@H](Cc2ccc(O)cc2)C(=O)O)CSSC1(C)C)[C@@H](C)O` [Example 172] (HELM PEPTIDE1{V.[Hyp].I.T.Y.[Pen].N.R.[Dab].T.[NCC[C@@H](N[*:1])C(=O)[*:2]].W.C.[Dab].R.Y}$PEPTIDE1,PEPTIDE1,6:R3-13:R3$$$V2.0), the “Escherichia coli ATCC 25922 MIC” value in data set [1] came out at 0.5 µg/mL. Further, in data set [2] (setting [5]), the “Escherichia coli MCR-1 Af 45 MIC” value came to 0.5 µg/mL. Moreover, the “Klebsiella pneumoniae SSI3010 MIC” value in data set [3] was 0.5 µg/mL. The “Hemolysis at 0.2 g/L” value in data set [4] is reported as 0%.

In the case of `CC[C@H](C)[C@H](NC(=O)[C@@H](NC(=O)[C@@H]1CCCN1C(=O)[C@@H](NC(=O)[C@@H]1CCCN1C(=O)[C@H](CCCCN)NC(=O)[C@@H](N)CCCCN)C(C)C)[C@@H](C)CC)C(=O)N[C@@H](Cc1ccc(O)cc1)C(=O)N[C@H]1CSSC[C@@H](C(=O)N[C@@H](CCN)C(=O)N(CCCNC(=N)N)CC(=O)N[C@@H](Cc2ccc(O)cc2)C(=O)O)NC(=O)[C@H](CCCCN)NC(=O)[C@@H](CCN)NC(=O)[C@H]([C@@H](C)O)NC(=O)[C@H](CCN)NC(=O)[C@H](CCCNC(=N)N)NC(=O)[C@H](CC(N)=O)NC1=O` [Example 111] (HELM PEPTIDE1{K.K.P.V.P.I.I.Y.C.N.R.[Dab].T.[NCC[C@@H](N[*:1])C(=O)[*:2]].K.C.[Dab].[N=C(N)NCCCN(CC(=O)[*:2])[*:1]].Y}$PEPTIDE1,PEPTIDE1,9:R3-16:R3$$$V2.0; N-terminus assumed), the “Escherichia coli ATCC 25922 MIC” value in data set [1] came to 0.25 µg/mL. For the same compound, the “Escherichia coli MCR-1 Af 45 MIC” value in data set [2] (MCR-1 Af 45) stood at 0.125 µg/mL. The “Klebsiella pneumoniae SSI3010 MIC” value in data set [3] was found to be 0.25 µg/mL. For the same compound, the “Hemolysis at 0.2 g/L” value in data set [4] is listed as 0%.

In the case of `CC[C@H](C)[C@H](NC(=O)[C@@H]1C[C@@H](O)CN1C(=O)[C@@H](N)C(C)C)C(=O)N[C@H](C(=O)N[C@@H](Cc1ccc(O)cc1)C(=O)N[C@@H]1C(=O)N[C@@H](CC(N)=O)C(=O)N[C@@H](CCCNC(=N)N)C(=O)N[C@@H](CCN)C(=O)N[C@@H]([C@@H](C)O)C(=O)N[C@H](CCN)C(=O)N[C@@H](CO)C(=O)N[C@H](C(=O)N[C@@H](CCN)C(=O)N[C@@H](CCCNC(=N)N)C(=O)N[C@@H](Cc2ccc(O)cc2)C(=O)O)CSSC1(C)C)[C@@H](C)O` [Example 170] (HELM PEPTIDE1{V.[Hyp].I.T.Y.[Pen].N.R.[Dab].T.[NCC[C@@H](N[*:1])C(=O)[*:2]].S.C.[Dab].R.Y}$PEPTIDE1,PEPTIDE1,6:R3-13:R3$$$V2.0), the “Escherichia coli ATCC 25922 MIC” value in data set [1] turned out to be 0.25 µg/mL. Further, in data set [2] (setting [5]), the “Escherichia coli MCR-1 Af 45 MIC” value was 0.5 µg/mL. The “Klebsiella pneumoniae SSI3010 MIC” value in data set [3] turned out to be 0.5 µg/mL. For the same compound, the “Hemolysis at 0.2 g/L” value in data set [4] is on record as 0%.

(Values after patent US20230295234A1, “ANTIMICROBIAL PEPTIDOMIMETICS” (SPEXIS AG, priority 2020, published 2023).)
